Molecules are shown by their SMILES. Active and inactive are the calls of the source. The calls are words filed in the database; no cut-off is given here.

Holding throughout (assay type): functional, cell-based
Assay [1] concerns HSC-3. Briefly: Antiproliferative activity against human HSC-3 cells assessed as cell growth inhibition measured after 48 hrs by MTT assay. The conditions noted are these: HSC-3, 48 h.
Assay [2] has as its system MDA-MB-468. Description: Induction of apoptosis in human MDA-MB-468 cells assessed as increase in cleaved PARP expression measured after 48 hrs by Western blot analysis. The conditions noted are these: dose 5-20 µM, DDE = dose-dependent effect. In general terms: Immunoblotting shows a protein as a band on a membrane.
Assay [3] relates to MDA-MB-468. Description: Induction of apoptosis in human MDA-MB-468 cells assessed as increase in late apoptotic cells measured after 48 hrs by Annexin V-FITC/propidium iodide staining based flow cytometry. Conditions: dose 5-20 µM, DDE = dose-dependent effect. (Flow cytometry measures light scatter and fluorescence of single cells or particles in a stream.)
The subject of assay [4] is MDA-MB-231. Description: Induction of apoptosis in human MDA-MB-231 cells assessed as increase in cytochrome c expression measured after 48 hrs by Western blot analysis. Conditions: dose 5-20 µM, DDE = dose-dependent effect.
Assay [5] concerns MDA-MB-468. Description: Induction of DNA damage in human MDA-MB-468 cells assessed as reduction in RAD51 expression measured after 6 to 48 hrs by Western blot analysis. Conditions: dose 5-20 µM, time 6-48 hrs, DDE = dose-dependent effect.
Assay [6] concerns MDA-MB-231. Description: Induction of DNA damage in human MDA-MB-231 cells assessed as increase in gamma-H2AX accumulation measured after 48 hrs by immunofluorescence analysis.
Assay [7] concerns MDA-MB-468. Briefly: Antiproliferative activity against human MDA-MB-468 cells assessed as reduction in Ki67 expression measured after 48 hrs by immunofluorescence analysis.
Assay [8] deals with MDA-MB-231. Briefly: Induction of apoptosis in human MDA-MB-231 cells assessed as increase in Bax expression measured after 48 hrs by Western blot analysis. The conditions noted are these: dose 5-20 µM, DDE = dose-dependent effect.
Assay [9] has as its system MDA-MB-231. Description: Induction of apoptosis in human MDA-MB-231 cells assessed as increase in Bak expression measured after 48 hrs by Western blot analysis. Conditions: dose 5-20 µM, DDE = dose-dependent effect.
The subject of assay [10] is MDA-MB-231. Description: Inhibition of autophagic flux in human MDA-MB-231 cells assessed as reduction in polyubiquitinated H2A expression measured after 48 hrs by Western blot analysis.
The subject of assay [11] is MDA-MB-231. Description: Antiproliferative activity against human MDA-MB-231 cells assessed as cell growth inhibition measured after 48 hrs by MTT assay. Conditions: MDA-MB-231, 48 h. For orientation: Tetrazolium assays rely on reduction of a dye to a coloured formazan, in cell work by metabolically active cells.

On to `O=C(NC1CCCCC1)c1[nH]cnc1-c1nc2ccccc2[nH]1`, for which the 50% inhibitory concentration (IC50) in assay [1] was 24 µM; in [11] it was 8.3 µM. Moreover, the Activity result in assay [2], in assay [3], in [4], in assay [5], in assay [8] and in assay [9] was “Dde” in each case. The outcome in [6] and in [7] was Active. The inhibition entry in [10] is “Active”.

As usually defined, the IC50 is the midpoint of a concentration-inhibition curve.

The record behind these values is ChEMBL document CHEMBL5113482, “Discovery of fused benzimidazole-imidazole autophagic flux inhibitors for treatment of triple-negative breast cancer” (Eur J Med Chem, 2022).
